Measurements published in PMC5350466 (mBio, 2017).
Converted amounts (≈) assume the structure as drawn.

Legend:
[1] = tested on: B. cenocepacia K56-2; test: MIC by broth microdilution, parental strain; assay type: cell-based, Burkholderia cenocepacia; details: broth microdilution in cation-adjusted MHB at 18 to 24 h; for MIC: Burkholderia cenocepacia, K562
[2] = molecular target: T1, BcnA (Burkholderia cenocepacia, UniProt B4EE32); test: Antibiotic bioassay of sequestration by BcnA; assay type: binding; details: 1.5 µM BcnA, 30 min at 37°C, 10-kDa cutoff filtration
T1 sequence (B4EE32 27-186): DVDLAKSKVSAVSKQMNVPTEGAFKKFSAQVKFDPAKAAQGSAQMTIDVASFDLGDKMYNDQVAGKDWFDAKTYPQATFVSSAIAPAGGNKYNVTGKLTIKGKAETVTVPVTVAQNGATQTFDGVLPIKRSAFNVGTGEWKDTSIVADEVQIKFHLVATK
Protocol: Antibiotic test solutions with or without 1.5 µM BcnA were incubated for 30 min at 37°C with rotation. The solutions were filtered through filter units with a 10-kDa cutoff by centrifugation at 7,500 × g, at 4°C for 10 min. The antibiotic concentrations in the filtrates were determined by spotting 5 µl onto sterile filter discs placed on agar plates swabbed with the test bacteria. Petri dishes (15-cm diameter) containing 40 ml of LB agar were swabbed with bacterial suspensions with an OD600 of 0.04. The plates were incubated at 37°C for 24 h. Each plate included four discs containing standard concentrations of the antibiotic alongside the discs impregnated with test and control antibiotic solutions. E. coli DH5α was used for bioassays of PmB, norfloxacin, ceftazidime, and gentamicin, and S. aureus USA300 was used for bioassays of rifampin. The theoretical disc contents of the test antibiotic solutions were 10, 5, 2, 30, and 10 µg for PmB, rifampin, norfloxacin, ceftazidime, and gentamicin, respectively. Standard antibiotic discs contained a 2-fold higher concentration than, the same concentration as, or a 2- or 4-fold lower concentration than the test antibiotic discs. After incubation, the clear zones of inhibition were measured and the antibiotic concentrations were determined from standard curves constructed from the standard antibiotic discs.

[3] = tested on: bcnA::luxCDABE; test: Luciferase expression assay, bcnA::luxCDABE; assay type: cell-based, Burkholderia cenocepacia; details: antibiotic at concentrations near the MIC (sublethal), 3 h
[4] = tested on: B. cenocepacia ΔbcnA mutant; test: MIC by broth microdilution, ΔbcnA mutant; assay type: cell-based, Burkholderia cenocepacia
[5] = tested on: B. cenocepacia ΔbcnB mutant; test: MIC by broth microdilution, ΔbcnB mutant; assay type: cell-based, Burkholderia cenocepacia; details: broth microdilution in cation-adjusted MHB at 18 to 24 h
[6] = tested on: ΔbcnA pbcnA (Sa); test: MIC by E test; assay type: cell-based, Burkholderia cenocepacia; details: 24 h
[7] = tested on: ΔbcnA pSCRhaB2; test: MIC by E test; assay type: cell-based, Burkholderia cenocepacia; details: 24 h
[8] = molecular target: T1, BcnA; test: In vitro binding assay: Nile red displacement from BcnA; details: against 1.5 µM Nile red binding to 1.5 µM BcnA in PBS; read-out: binding inhibition constant (Ki)
Protocol: In vitro binding assays were performed as previously described ([23]), with a few modifications. Purified BCNs were prepared in phosphate-buffered saline (PBS, pH 7.4). Phospholipids and Nile red were prepared in DMSO. […] All spectra were corrected for background fluorescence determined from probe-into-buffer titrations. Fluorescence was measured with a Cary Eclipse fluorescence spectrophotometer (Varian) set at an excitation wavelength (λex) specific for each probe, as follows: Nile red, 550 nm; BODIPY phospholipids, 500 nm for fatty acyl BODIPY-labeled phosphocholine and 505 nm for head group BODIPY-labeled phosphoethanolamine. The emission spectrum for each probe was collected across the following wavelengths (λem): Nile red, 590 to 750 nm; BODIPY phospholipids, 510 to 665 nm. The background-corrected binding fluorescence with each probe was fitted to a one-site binding model as previously described for human AGP ([23]). The equilibrium binding affinity constant for the probe-BCN complex (Kd), the probe concentration needed to achieve half-maximum binding at equilibrium, was determined by nonlinear least-squares regression analysis of the binding isotherms with GraphPad Prism v 5.0 software (GraphPad Software, Inc.).
For probe displacement experiments, antibiotic solutions and fat-soluble vitamins (prepared in DMSO) diluted in PBS, pH 7.4, were titrated against a BCN-probe complex at a saturating concentration necessary to obtain the maximum fluorescence when bound. Probe displacement was measured as the corresponding decrease in fluorescence upon the progressive increase in the antibiotic concentration. The binding inhibition constants (Kis) of the test compounds were determined by nonlinear regression analysis with competition-binding equations for one-site binding calculated by GraphPad Prism v 5.0 software. The lower the Ki values, the higher the affinity of the molecule for BcnA. All fluorometric assays were conducted in duplicate three independent times.

[9] = tested on: K56-2 pSCRhaB2; test: MIC by E test; assay type: cell-based; details: Burkholderia cenocepacia, 24 h, read-out: MIC by Etest, K56-2 pSCRhaB2
[10] = tested on: bcnB::luxCDABE; test: Luciferase expression assay, bcnB::luxCDABE; assay type: cell-based, Burkholderia cenocepacia; details: antibiotic at concentrations near the MIC (sublethal), 3 h

Molecule	MIC [1] [µg/mL]	antibiotic sequestration by BcnA [2]	expression of bcnA::luxCDABE upon exposure to antibiotic [3]	Ki [8] [µM]	further results
CNC(C)C1CCC(N)C(OC2C(N)CC(N)C(OC3OCC(C)(O)C(NC)C3O)C2O)O1 (centres unmarked) [Gentamicin, gentamicin]	2050 (≈ 4290 µM)	not	remained unchanged	–	–
polymyxin B [PmB]	–	sequestered	upregulated	–	MIC ΔbcnA ([4]; broth microdilution in cation-adjusted MHB at 18 to 24 h): 2048 µg/mL; MIC reduction in the ΔbcnA mutant ([4]; ΔbcnA mutant relative to parental strain): 4 fold; MIC K56-2 [1]: ≥ 4096 µg/mL; MIC ΔbcnB [5]: ≥ 4096 µg/mL
CC(C)(O/N=C(\C(=O)N[C@@H]1C(=O)N2C(C(=O)[O-])=C(C[n+]3ccccc3)CS[C@H]12)c1csc(N)n1)C(=O)O [Ceftazidime, ceftazidime]	32 (≈ 58.5 µM)	sequestered	upregulated	16900	MIC by Etest, ΔbcnA pbcnA (Sa) [6]: 8 µg/mL (≈ 14.6 µM); MIC by Etest, ΔbcnA pSCRhaB2 [7]: 2 μg/ml; MIC [9]: 8 µg/mL (≈ 14.6 µM); expression of bcnB::luxCDABE upon exposure to antibiotic [10]: increased
CC[C@H]1OC(=O)[C@H](C)[C@@H](O[C@H]2C[C@@](C)(OC)[C@@H](O)[C@H](C)O2)[C@H](C)[C@@H](O[C@@H]2O[C@H](C)C[C@H](N(C)C)[C@H]2O)[C@](C)(O)C[C@@H](C)CN(C)[C@H](C)[C@@H](O)[C@]1(C)O [Azithromycin, azithromycin]	64 (≈ 85.4 µM)	–	–	–	–
CCn1cc(C(=O)O)c(=O)c2cc(F)c(N3CCNCC3)cc21 [Norfloxacin, norfloxacin]	128 (≈ 401 µM)	sequestered	upregulated	400	expression of bcnB::luxCDABE upon exposure to antibiotic [10]: increased
O=C(O)c1cn(C2CC2)c2cc(N3CCNCC3)c(F)cc2c1=O [Cipro, ciprofloxacin]	–	–	–	–	MIC by Etest, ΔbcnA pbcnA (Sa) [6]: 4 µg/mL (≈ 12.1 µM); MIC by Etest, ΔbcnA pSCRhaB2 [7]: 2 μg/ml; MIC [9]: 4 µg/mL (≈ 12.1 µM)
C[C@@H](O)[C@H]1C(=O)N2C(C(=O)O)=C(S[C@@H]3CN[C@H](C(=O)N(C)C)C3)[C@H](C)[C@H]12 [Meropenem, meropenem]	1 (≈ 2.61 µM)	–	–	–	–
Cc1c(C)c2c(c(C)c1O)CC[C@@](C)(CCC[C@H](C)CCC[C@H](C)CCCC(C)C)O2 [Vit E, α-tocopherol]	–	–	–	0.417	–
menaquinone [Vit K2]	–	–	–	0.569	–
CN(C)c1ccc(O)c2c1C[C@H]1C[C@H]3[C@H](N(C)C)C(O)=C(C(N)=O)C(=O)[C@@]3(O)C(O)=C1C2=O [Minocycline, minocycline]	2 (≈ 4.37 µM)	–	–	–	–
COc1cc(Cc2cnc(N)nc2N)cc(OC)c1OC [Trimethoprim, trimethoprim]	8 (≈ 27.6 µM)	–	–	–	–
CO[C@H]1/C=C/O[C@@]2(C)Oc3c(C)c(O)c4c(O)c(c(/C=N/N5CCN(C)CC5)c(O)c4c3C2=O)NC(=O)/C(C)=C\C=C\[C@H](C)[C@H](O)[C@@H](C)[C@@H](O)[C@@H](C)[C@H](OC(C)=O)[C@@H]1C [Rifampicin, rifampin]	256 (≈ 311 µM)	sequestered	upregulated	16.5	MIC by Etest, ΔbcnA pbcnA (Sa) [6]: ≥ 64 µg/mL; MIC by Etest, ΔbcnA pSCRhaB2 [7]: 16 μg/ml; MIC [9]: ≥ 64 µg/mL
